Reference: patent US20200247815A1, “PYRAZOLYL-CONTAINING TRICYCLIC DERIVATIVE, PREPARATION METHOD THEREFOR AND USE THEREOF” (Jiangsu Hansoh Pharmaceutical Group Co., Ltd., priority 2017, published 2020)
pIC50: −log10 of the molar value.

Assays:
[1] = target: T1, hERG potassium channel (Homo sapiens, UniProt Q12809); test: hERG potassium channel inhibition activity test (Qpatch, CHO-hERG cells); assay type: cell-based
T1 construct: expressed in transfected cells; host or cells: CHO-hERG cells
Procedure: 4.1.1 CHO-hERG cells were cultured in a 175 cm2 culture flask. After the cell density reached 60˜80%, the culture solution was removed. The cells were washed with 7 mL of PBS once, and dissociated with 3 mL of Detachin.
4.1.2 After completion of dissociation, the cells were neutralized with 7 mL of culture solution. The solution was centrifuged, and the supernate was removed. The cells were resuspended in 5 mL of culture solution. The cell indensity is ensured as […].
Single cell sealing impedance and formation of whole-cell mode were automatically performed by Qpatch instrument. After obtaining the whole-cell recording mode, the cell was clamped at −80 mV. The cell first underwent pre-voltage of −50 mV for 50 msec, then underwent depolarization stimulation at +40 mV for 5 sec, and then underwent repolarization at −50 mV for 5 sec. and then the voltage returned to −80 mV. The cell underwent the stimulation at the voltage every 15 sec, and the data were recorded for 2 min, then extracellular fluid was administrated, and then the data were recorded for 5 min. Then, the administration process begun. The concentration of the test compound started from the lowest concentration, each test concentration was administrated for 2.5 min. At least three cells were tested for each concentration.
4.4.1 20 mM mother liquor of the compound was diluted with extracellular fluid, 5 uL of 20 mM mother liquor of the compound was added with 2495 uL of extracellular fluid to obtain a concentration of 40 uM (500-fold dilution). The solution was subjected to a 3-fold serial dilution with extracellular fluid containing 0.2% DMSO to obtain a required final concentration.
This concentration of DMSO had no effect on hERG potassium channel.
The experimental data was analyzed by XLFit software.

[2] = target: T2, ERK-2 kinase (Homo sapiens, UniProt P28482); test: Inhibition of ERK-2 kinase activity (LANCE Ultra TR-FRET); assay type: biochemical; conditions: ERK-2 enzyme 0.08 nM, ATP 38.15 μM
T2 construct: purchased Invitrogen PV3313
Procedure: The object of this test example is to determine the inhibition effect of the compound on ERK-2 kinase activity. In vitro ERK-2 kinase analysis was carried out by using LANCE Ultra (Perkin Elmer) method. The reaction (reaction system 10 μL) was conducted by adding 2.5 μL of test compound/DMSO (final 4%, V/V, diluted to 10 concentrations (400 nM to 0.02 nM) using a 1:3 dilution scheme), 5 μL of a mixed solution of ERK-2 enzyme (Invitrogen, # PV3313, final concentration: 0.08 nM) and substrate Ulight-MBP peptide (Perkin Elmer, # TRF0109-M, final concentration: 0.5 μM) formulated with a kinase buffer (50 mM Hepes pH 7.4, 10 mM MgCl2, 1 mM EGTA 0.01% Triton X-100, 2 mM DTT) and 2.5 μL of ATP solution (Invitrogen, # PV3227, final concentration: 38.15 μM) formulated with the same buffer successively to a 384-well plate (Perkin Elmer OPTIPLATE™) and mixing well. The reaction mixture was incubated at room temperature for 60 minutes. The reaction was stopped by adding IX LANCE Detection buffer (PerkinElmer # CR97-100) diluted with ultra-pure water, mM EDTA (Invitrogen #15575038) and 1 nM Eu-anti-p-MBP (PerkinElmer # TRF0201-M) antibody in 10 μL/well. The plate was incubated at room temperature for 60 minutes. Excitation reading was performed on Synergy H1 Hybird Reader, H1MFD (Biotek) with an excitation wavelength of 320 nm. TR-FRET rate was calculated by dividing the acceptor emission signal (signal value at 665 nM) by the Eu donor emission signal (signal value at 615 nM). The inhibition TR-FRET rate of the well treated by the compound was calculated relative to the Max signal (DMSO control) and Min signal (no enzyme added) control wells on the plate {% inhibition rate=100−[(test compound−Min average)]/(Max average−Min average)×100}. The 10 concentrations of the compound after 4-fold dilution of the reaction system were 100 nM to 0.005 nM. Abs_IC50 value was calculated by using GraphPad prism fits percentage inhibition rate and ten-point concentration data in a 4-parameter non-linear logic formula.

[3] = target: T3, ERK-1 kinase (Homo sapiens, UniProt P27361); test: Inhibition of ERK-1 kinase activity (LANCE Ultra TR-FRET); assay type: biochemical; conditions: ERK1 enzyme 0.4 nM, ATP 38.15 μM
T3 construct: purchased Invitrogen PV3311
Procedure: The object of this test example is to determine the inhibition effect of the compound on ERK-1 kinase activity. In vitro ERK-1 kinase analysis was carried out by using LANCE Ultra (Perkin Elmer) method. The reaction (reaction system 10 μL) was conducted by adding 2.5 μL of test compound/DMSO (final 4%, V/V, diluted to 10 concentrations (400 nM to 0.02 nM) using a 1:3 dilution scheme), 5 μL of a mixed solution of ERK1 enzyme (Invitrogen, # PV3311, final concentration: 0.4 nM) and substrate Ulight-MBP peptide (Perkin Elmer, # TRF0109-M, final concentration: 0.5 μM) formulated with a kinase buffer (50 mM Hepes pH 7.4, 10 mM MgCl2, 1 mM EGTA, 0.01% Triton X-100, 2 mM DTT) and 2.5 μL of ATP solution (Invitrogen, # PV3227, final concentration: 38.15 μM) formulated with the same buffer successively to a 384-well plate (Perkin Elmer OPTIPLATE™) and mixing well. The reaction mixture was incubated at room temperature for 60 minutes. The reaction was stopped by adding 1× LANCE Detection buffer (PerkinElmer # CR97-100) diluted with ultra-pure water, mM EDTA (Invitrogen #15575038) and 1 nM Eu-anti-p-MBP (PerkinElmer # TRF0201-M) antibody in 10 μL/well. The plate was incubated at room temperature for 60 minutes. Excitation reading was performed on Synergy H1 Hybird Reader, H1MFD (Biotek) with an excitation wavelength of 320 nm. TR-FRET rate was calculated by dividing the acceptor emission signal (signal value at 665 nM) by the Eu donor emission signal (signal value at 615 nM). The inhibition TR-FRET rate of the well treated by the compound was calculated relative to the Max signal (DMSO control) and Min signal (no enzyme added) control wells on the plate {% inhibition rate=100−[(test compound−Min average)]/(Max average−Min average)×100}. The 10 concentrations of the compound after 4-fold dilution of the reaction system were 100 nM to 0.005 nM. Abs_IC50 value was calculated by using GraphPad prism fits percentage inhibition rate and ten-point concentration data in a 4-parameter non-linear logic formula.

[4] = test system: pancreatic cancer tumor cell Mia Paca 2; test: Inhibition of tumor cell proliferation (CellTiter-Glo); assay type: cell-based; conditions: Homo sapiens, Miapaca-2 cell, 3-7 days
Procedure: The object of this test example is to determine the inhibition effect of the present compound on tumor cell proliferation activity. The inhibition activity of the compound on tumor cell proliferation was determined by CellTiter-Glo method, and the half inhibitory concentration IC50 of the compound for inhibiting cell proliferation activity was obtained, 50-100 μL of tumor cell suspension was inoculated in a 96-well cell culture plate with a density of 1˜5*10^4 cells/ml. The plate was incubated in an incubator for 16˜24 hours (37° C., 5% CO2). Solutions of test compounds at different concentrations obtained by gradient dilution were added to the cells in the plate. The plate was incubated in an incubator for 3-7 days (37° C., 5% CO2), 50˜100 μL of CellTiter-Glo reagent was added to each well. The plate was shaked for 10 minutes, and left to stand at room temperature for 10 minutes. The value of the chemiluminescence signal was determined by a microplate reader. The inhibition rate was calculated from the value of the chemiluminescence signal. IC50 of the compound was obtained by curve fitting based on the inhibition rate at different concentrations.
The inhibition effect of the present compound on pancreatic cancer tumor cell Mia Paca 2 proliferation activity was determined by the test, and the obtained IC50 value is shown in Table 2.

T3 sequence (P27361 whole entry): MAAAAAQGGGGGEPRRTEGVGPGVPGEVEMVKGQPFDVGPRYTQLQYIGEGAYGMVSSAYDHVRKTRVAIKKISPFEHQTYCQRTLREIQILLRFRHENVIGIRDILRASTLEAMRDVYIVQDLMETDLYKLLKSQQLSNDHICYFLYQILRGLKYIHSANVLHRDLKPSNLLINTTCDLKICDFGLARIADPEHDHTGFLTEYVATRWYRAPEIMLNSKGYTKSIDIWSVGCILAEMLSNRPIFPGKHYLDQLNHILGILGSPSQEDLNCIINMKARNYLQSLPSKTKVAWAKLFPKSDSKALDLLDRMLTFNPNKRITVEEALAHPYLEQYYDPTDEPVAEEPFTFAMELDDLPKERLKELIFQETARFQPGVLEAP
T2 sequence (P28482 whole entry): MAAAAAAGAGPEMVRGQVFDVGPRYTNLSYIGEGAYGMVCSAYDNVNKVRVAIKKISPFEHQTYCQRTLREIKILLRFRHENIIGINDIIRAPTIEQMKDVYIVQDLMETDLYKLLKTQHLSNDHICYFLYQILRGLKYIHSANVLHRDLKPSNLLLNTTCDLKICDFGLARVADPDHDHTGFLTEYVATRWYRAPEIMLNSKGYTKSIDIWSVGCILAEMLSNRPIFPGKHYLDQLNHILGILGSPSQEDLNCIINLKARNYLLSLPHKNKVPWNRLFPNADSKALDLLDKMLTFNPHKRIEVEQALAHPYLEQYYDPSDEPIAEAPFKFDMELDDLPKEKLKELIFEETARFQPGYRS
T1 sequence (Q12809 whole entry): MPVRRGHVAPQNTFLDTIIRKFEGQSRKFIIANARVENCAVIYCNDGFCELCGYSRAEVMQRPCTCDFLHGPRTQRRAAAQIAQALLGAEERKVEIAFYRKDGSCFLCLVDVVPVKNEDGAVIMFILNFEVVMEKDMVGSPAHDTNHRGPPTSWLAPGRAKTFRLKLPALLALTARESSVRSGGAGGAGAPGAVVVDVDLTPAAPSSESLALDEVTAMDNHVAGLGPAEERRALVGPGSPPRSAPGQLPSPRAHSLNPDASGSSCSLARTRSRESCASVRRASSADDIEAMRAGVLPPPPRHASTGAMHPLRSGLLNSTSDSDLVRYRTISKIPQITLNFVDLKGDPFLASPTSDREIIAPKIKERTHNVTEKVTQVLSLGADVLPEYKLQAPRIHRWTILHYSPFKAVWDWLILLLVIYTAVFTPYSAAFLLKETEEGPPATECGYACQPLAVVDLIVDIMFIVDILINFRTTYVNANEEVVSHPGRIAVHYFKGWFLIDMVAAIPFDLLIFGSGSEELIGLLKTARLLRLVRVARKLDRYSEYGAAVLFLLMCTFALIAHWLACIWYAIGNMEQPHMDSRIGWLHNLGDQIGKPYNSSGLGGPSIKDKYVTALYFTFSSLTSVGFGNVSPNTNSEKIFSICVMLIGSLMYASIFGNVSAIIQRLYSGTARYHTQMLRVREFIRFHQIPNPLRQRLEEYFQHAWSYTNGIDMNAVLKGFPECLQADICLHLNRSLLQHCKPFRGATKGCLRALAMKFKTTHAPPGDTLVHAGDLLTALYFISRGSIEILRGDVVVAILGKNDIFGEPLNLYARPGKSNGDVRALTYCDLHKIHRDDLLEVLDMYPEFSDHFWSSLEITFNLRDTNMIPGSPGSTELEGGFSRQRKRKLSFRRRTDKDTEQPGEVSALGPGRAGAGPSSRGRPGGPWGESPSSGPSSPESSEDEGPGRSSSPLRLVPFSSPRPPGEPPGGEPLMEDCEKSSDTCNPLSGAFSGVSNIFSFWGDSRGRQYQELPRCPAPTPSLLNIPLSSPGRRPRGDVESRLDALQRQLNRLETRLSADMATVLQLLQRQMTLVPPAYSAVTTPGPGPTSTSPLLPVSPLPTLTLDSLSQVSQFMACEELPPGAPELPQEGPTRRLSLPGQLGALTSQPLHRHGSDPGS

Structure (SMILES)	Inhibition effect on cardiac hERG potassium channel [1]	pIC50 ([1]; CHO-hERG cells, highest test concentration 40 uM, read-out: hERG (inhibition effect on hERG current))	pIC50 [2]	pIC50 [3]	pIC50 [4]
O=C(Cc1ccccc1)c1nc2cc3c(-c4ccncc4)n[nH]c3cc2[nH]1 [Example 105, 2-phenyl-1-(3-(pyridin-4-yl)-1,7-dihydroimidazo[4,5-f]indazol-6-yl)ethan-1-one]	no inhibition effect	< 4.40	–	–	–
COc1cccc([C@@H](C)NC(=O)c2nc3cc4c(-c5ccncc5)n[nH]c4cc3[nH]2)c1 [Example 19, (R)—N-(1-(3-methoxyphenyl)ethyl)-3-(pyridin-4-yl)-1,7-dihydroimidazo[4,5-f]indazole-6-carboxamide]	–	–	9.70	9.46	6.80
Cc1cccc([C@@H](CO)NC(=O)c2nc3cc4c(-c5ccncc5)n[nH]c4cc3[nH]2)c1 [Example 30, (S)—N-(2-hydroxy-1-(m-tolyl)ethyl)-(pyridin-4-yl)-1,7-dihydroimidazo[4,5-f]indazole-6-carboxamide]	–	–	9.92	9.72	7.21
C[C@@H](NC(=O)c1nc2cc3c(-c4ccncc4)n[nH]c3cc2[nH]1)c1cccc(F)c1 [Example 45, (R)—N-(1-(3-fluorophenyl)ethyl)-3-(pyridin-4-yl)-1,7-dihydroimidazo[4,5-f]indazole-6-carboxamide]	–	–	9.30	9.27	6.96
CNC[C@@H](NC(=O)c1nc2cc3c(-c4ccncc4)n[nH]c3cc2[nH]1)c1ccccc1 [Example 50, (S)—N-(2-(methylamino)-1-phenylethyl)-3-(pyridin-4-yl)-1,7-dihydroimidazo[4,5-f]indazole-6-carboxamide]	–	–	9.77	9.54	7.26
C[C@@H](NC(=O)c1nc2cc3c(-c4ccncc4)n[nH]c3cc2[nH]1)c1cccc(Br)c1 [Example 18, (R)—N-(1-(3-bromophenyl)ethyl)-3-(pyridin-4-yl)-1,7-dihydroimidazo[4,5-f]indazole-6-carboxamide]	–	–	9.29	9.35	6.96
Cc1cccc([C@@H](C)NC(=O)c2nc3cc4c(-c5ccncc5)n[nH]c4cc3[nH]2)c1 [Example 21, (R)-3-(pyridin-4-yl)-N-(1-(m-tolyl)ethyl)-1,7-dihydroimidazo[4,5-f]indazole-6-carboxamide]	–	–	9.77	9.52	7.23
